Data published in the NIST ThermoML archive (doi:10.1016/j.jct.2018.04.018).
“And” between values parts separate entries of the source, which are not always exact repeats. Identical values can stand only once.

Settings: 101.33 kPa, Liquid; for mass density: Vibrating tube method; for speed of sound: Single path-length method

CCCCCCCC[n+]1ccn(C)c1.F[P-](F)(F)(F)(F)F [1-octyl-3-methylimidazolium hexafluorophosphate]
Settings	viscosity
269.96 K, Cone and plate viscometry	8278 mPa·s
270.27 K, Cone and plate viscometry	7970.4 mPa·s
270.37 K, Cone and plate viscometry	7819.7 mPa·s
270.91 K, Cone and plate viscometry	7509 mPa·s
271.66 K, Cone and plate viscometry	6771 mPa·s
272.33 K, Cone and plate viscometry	6420 mPa·s
272.44 K, Cone and plate viscometry	6269.6 mPa·s
273.24 K, Cone and plate viscometry	5792.5 mPa·s
274.02 K, Cone and plate viscometry	5350.3 mPa·s
274.63 K, Cone and plate viscometry	4992.4 mPa·s
274.8 K, Cone and plate viscometry	4951.8 mPa·s
274.81 K, Cone and plate viscometry	4903 mPa·s
274.88 K, Cone and plate viscometry	4879 mPa·s
275.31 K, Cone and plate viscometry	4651.9 mPa·s
275.44 K, Cone and plate viscometry	4635.1 mPa·s
275.56 K, Cone and plate viscometry	4593.6 mPa·s
276.14 K, Cone and plate viscometry	4334 mPa·s
276.34 K, Cone and plate viscometry	4268.2 mPa·s
276.47 K, Cone and plate viscometry	4216.3 mPa·s
276.9 K, Cone and plate viscometry	4053 mPa·s
277.09 K, Cone and plate viscometry	3957.1 mPa·s
277.68 K, Cone and plate viscometry	3777 mPa·s
277.76 K, Cone and plate viscometry	3737 mPa·s
277.85 K, Cone and plate viscometry	3693.3 mPa·s
278.15 K, Concentric cylinders viscometry	3543 mPa·s
278.46 K, Cone and plate viscometry	3522.8 mPa·s
278.6 K, Cone and plate viscometry	3439.8 mPa·s
279.19 K, Cone and plate viscometry	3241 mPa·s
279.24 K, Cone and plate viscometry	3279.4 mPa·s
279.34 K, Cone and plate viscometry	3221.2 mPa·s
280.01 K, Cone and plate viscometry	3050.1 mPa·s
280.09 K, Cone and plate viscometry	3002.8 mPa·s
280.77 K, Cone and plate viscometry	2845.3 mPa·s
280.78 K, Cone and plate viscometry	2866 mPa·s
280.84 K, Cone and plate viscometry	2803.8 mPa·s
281.53 K, Cone and plate viscometry	2656.6 mPa·s
281.59 K, Cone and plate viscometry	2620.4 mPa·s
282.29 K, Cone and plate viscometry	2486.9 mPa·s
282.33 K, Cone and plate viscometry	2458 mPa·s
282.53 K, Cone and plate viscometry	2412.6 mPa·s
283.04 K, Cone and plate viscometry	2331.3 mPa·s
283.08 K, Cone and plate viscometry	2299.1 mPa·s
283.15 K, Concentric cylinders viscometry	2263.1 mPa·s
283.79 K, Cone and plate viscometry	2174 mPa·s
283.83 K, Cone and plate viscometry	2154.4 mPa·s
284.54 K, Cone and plate viscometry	2037.4 mPa·s
284.55 K, Cone and plate viscometry	2001 mPa·s
284.58 K, Cone and plate viscometry	2017.2 mPa·s
285.28 K, Cone and plate viscometry	1916 mPa·s
285.32 K, Cone and plate viscometry	1893.2 mPa·s
286.03 K, Cone and plate viscometry	1799.7 mPa·s
286.06 K, Cone and plate viscometry	1779.6 mPa·s
286.78 K, Cone and plate viscometry	1697.1 mPa·s
286.8 K, Cone and plate viscometry	1672.4 mPa·s
287.52 K, Cone and plate viscometry	1594.4 mPa·s
287.55 K, Cone and plate viscometry	1572.8 mPa·s
288.15 K, Concentric cylinders viscometry	1475.1 mPa·s
288.27 K, Cone and plate viscometry	1496.8 mPa·s
288.29 K, Cone and plate viscometry	1479.3 mPa·s
289.02 K, Cone and plate viscometry	1407.5 mPa·s
289.03 K, Cone and plate viscometry	1391.9 mPa·s
289.76 K, Cone and plate viscometry	1327.8 mPa·s
289.78 K, Cone and plate viscometry	1313.9 mPa·s
290.5 K, Cone and plate viscometry	1253.5 mPa·s
290.52 K, Cone and plate viscometry	1241 mPa·s
291.24 K, Cone and plate viscometry	1183.2 mPa·s
291.27 K, Cone and plate viscometry	1168.4 mPa·s
291.98 K, Cone and plate viscometry	1115.8 mPa·s
292 K, Cone and plate viscometry	1101.8 mPa·s
292.73 K, Cone and plate viscometry	1053.3 mPa·s
292.75 K, Cone and plate viscometry	1040.1 mPa·s
293.15 K, Concentric cylinders viscometry	1001.1 mPa·s
293.48 K, Cone and plate viscometry	994.4 mPa·s
293.49 K, Cone and plate viscometry	984.3 mPa·s
294.22 K, Cone and plate viscometry	932.9 mPa·s
294.25 K, Cone and plate viscometry	929.4 mPa·s
294.96 K, Cone and plate viscometry	882.6 mPa·s
295.02 K, Cone and plate viscometry	879.2 mPa·s
295.71 K, Cone and plate viscometry	844.7 mPa·s
295.79 K, Cone and plate viscometry	829.3 mPa·s
296.47 K, Cone and plate viscometry	798 mPa·s
296.57 K, Cone and plate viscometry	784.2 mPa·s
297.2 K, Cone and plate viscometry	757 mPa·s
297.33 K, Cone and plate viscometry	741.5 mPa·s
297.94 K, Cone and plate viscometry	718 mPa·s
298.08 K, Cone and plate viscometry	705.1 mPa·s
298.15 K, Concentric cylinders viscometry	691.2 mPa·s
298.69 K, Cone and plate viscometry	682.3 mPa·s
298.82 K, Cone and plate viscometry	668.2 mPa·s
299.43 K, Cone and plate viscometry	647.5 mPa·s
299.55 K, Cone and plate viscometry	632.9 mPa·s
300.16 K, Cone and plate viscometry	614.6 mPa·s
300.28 K, Cone and plate viscometry	601.2 mPa·s
300.91 K, Cone and plate viscometry	584.1 mPa·s
301 K, Cone and plate viscometry	572.3 mPa·s
301.65 K, Cone and plate viscometry	555.5 mPa·s
301.73 K, Cone and plate viscometry	545 mPa·s
302.39 K, Cone and plate viscometry	528.9 mPa·s
302.46 K, Cone and plate viscometry	519.8 mPa·s
303.14 K, Cone and plate viscometry	502.9 mPa·s
303.15 K, Concentric cylinders viscometry	490 mPa·s
303.19 K, Cone and plate viscometry	494.3 mPa·s
303.88 K, Cone and plate viscometry	478.8 mPa·s
303.92 K, Cone and plate viscometry	470.6 mPa·s
304.62 K, Cone and plate viscometry	450.9 mPa·s
304.65 K, Cone and plate viscometry	449.1 mPa·s
305.37 K, Cone and plate viscometry	434.2 mPa·s
305.39 K, Cone and plate viscometry	429.1 mPa·s
306.11 K, Cone and plate viscometry	414.9 mPa·s
306.13 K, Cone and plate viscometry	409.9 mPa·s
306.85 K, Cone and plate viscometry	396 mPa·s
306.86 K, Cone and plate viscometry	390.9 mPa·s
307.59 K, Cone and plate viscometry	378 mPa·s
307.6 K, Cone and plate viscometry	372.5 mPa·s
308.34 K, Cone and plate viscometry	361 mPa·s
308.35 K, Cone and plate viscometry	356 mPa·s
309.09 K, Cone and plate viscometry	339.9 mPa·s and 344.9 mPa·s
309.82 K, Cone and plate viscometry	329.8 mPa·s
309.84 K, Cone and plate viscometry	325.7 mPa·s
310.57 K, Cone and plate viscometry	311.5 mPa·s and 315.9 mPa·s
311.31 K, Cone and plate viscometry	301.8 mPa·s
311.32 K, Cone and plate viscometry	297.7 mPa·s
312.05 K, Cone and plate viscometry	288.8 mPa·s
312.06 K, Cone and plate viscometry	284.9 mPa·s
312.8 K, Cone and plate viscometry	273.3 mPa·s and 275.7 mPa·s
313.15 K, Concentric cylinders viscometry	266.1 mPa·s
313.54 K, Cone and plate viscometry	264.8 mPa·s
313.55 K, Cone and plate viscometry	262 mPa·s
314.28 K, Cone and plate viscometry	254 mPa·s
314.29 K, Cone and plate viscometry	251.2 mPa·s
315.03 K, Cone and plate viscometry	240.6 mPa·s and 243.2 mPa·s
315.77 K, Cone and plate viscometry	230.6 mPa·s and 233 mPa·s
316.51 K, Cone and plate viscometry	221.6 mPa·s and 223.5 mPa·s
317.25 K, Cone and plate viscometry	213.6 mPa·s
317.26 K, Cone and plate viscometry	214.9 mPa·s
317.99 K, Cone and plate viscometry	206.5 mPa·s
318 K, Cone and plate viscometry	204 mPa·s
318.74 K, Cone and plate viscometry	196.1 mPa·s and 198.4 mPa·s
319.48 K, Cone and plate viscometry	188.3 mPa·s and 190.7 mPa·s
320.22 K, Cone and plate viscometry	181 mPa·s and 183.1 mPa·s
320.96 K, Cone and plate viscometry	174.4 mPa·s
320.97 K, Cone and plate viscometry	176 mPa·s
321.71 K, Cone and plate viscometry	168.1 mPa·s
321.72 K, Cone and plate viscometry	169.5 mPa·s
322.44 K, Cone and plate viscometry	163.6 mPa·s
322.46 K, Cone and plate viscometry	161.6 mPa·s
323.19 K, Cone and plate viscometry	155.4 mPa·s and 157.1 mPa·s
323.93 K, Cone and plate viscometry	149.8 mPa·s
323.94 K, Cone and plate viscometry	151.1 mPa·s
324.68 K, Cone and plate viscometry	144.3 mPa·s
324.69 K, Cone and plate viscometry	145.6 mPa·s
325.43 K, Cone and plate viscometry	139.3 mPa·s
325.44 K, Cone and plate viscometry	140.5 mPa·s
326.17 K, Cone and plate viscometry	135.3 mPa·s
326.18 K, Cone and plate viscometry	135.7 mPa·s
326.91 K, Cone and plate viscometry	129.5 mPa·s
326.92 K, Cone and plate viscometry	130.8 mPa·s
327.65 K, Cone and plate viscometry	124.9 mPa·s
327.67 K, Cone and plate viscometry	126 mPa·s
328.39 K, Cone and plate viscometry	120.8 mPa·s
328.46 K, Cone and plate viscometry	121.6 mPa·s
329.14 K, Cone and plate viscometry	116.8 mPa·s and 117.6 mPa·s
329.88 K, Cone and plate viscometry	112.8 mPa·s and 113.7 mPa·s
330.62 K, Cone and plate viscometry	108.9 mPa·s
330.63 K, Cone and plate viscometry	109.9 mPa·s
331.36 K, Cone and plate viscometry	105.1 mPa·s
331.37 K, Cone and plate viscometry	106 mPa·s
332.1 K, Cone and plate viscometry	102.6 mPa·s

Settings	mass density	speed of sound [m/s]
278.15 K	1252.41 kg/m3 and 1252.42 kg/m3	–
278.16 K	1252.41 kg/m3	–
283.15 K	1248.4 kg/m3 [middle of 4 runs]	1460.8
288.15 K	1244.12 kg/m3	–
293.15 K	1240.16 kg/m3 and 1240.34 kg/m3 and 1240.35 kg/m3	1425.5
293.17 K	1240.24 kg/m3	–
298.15 K	1236.18 kg/m3	–
303.15 K	1232.68 kg/m3 and 1232.44 kg/m3 and 1232.4 kg/m3	1394.9
303.16 K	1232.32 kg/m3	–
313.15 K	1224.86 kg/m3 and 1224.73 kg/m3 and 1224.76 kg/m3	–
313.16 K	1224.63 kg/m3	1367
323.15 K	1217.09 kg/m3 and 1217.15 kg/m3	1342
323.16 K	1217.34 kg/m3	–
